Laboratory results published in US20210330611A1, “THERAPY FOR NEUROLOGICAL DISEASES/DISORDERS” (priority 2020, published 2021).
pIC50: −log10 of the molar value. Counter-ions that a name gives are not always drawn. Like-named read-outs stand apart in the source and are kept apart here.

Assays:
[1] = system: fibrin-induced microglia activation; experiment: Image-based assay of fibrin-induced microglia activation (HTS and dose response); format: cell-based, rat; details: for inhibition at 10 µM: read-out: Fibrin % inhibition
primary rat microglia [2] = experiment: Cell toxicity (dead cells, size <150 μm2) in LPS assay
[3] = system: fibrin- and LPS-induced microglia activation; experiment: cells; format: cell-based, rat
[4] = system: LPS-induced microglia activation; experiment: Image-based assay of LPS-induced microglia activation (HTS and dose response); format: cell-based, rat; details: for inhibition at 10 µM: read-out: LPS % inhibition
primary rat microglia [5] = experiment: Cell toxicity (dead cells, size <150 μm2) in coated fibrin (cFib) assay;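 also: share of dead cells sized under 150 µm2 at 10 µM in fibrin-stimulated microglia HTS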
[6] = Rattus norvegicus, Microglia, primary HTS, 10 μM, fibrin-stimulated primary microglia
[7] = primary HTS, 10 μM, LPS assay, dead cells size <150 μm2
[8] = Rattus norvegicus, Microglia, primary HTS, 10 μM, LPS-stimulated primary microglia
[9] = primary HTS, 10 μM, fibrin assay, dead cells size <150 μm2
[10] = Rattus norvegicus, Microglia, primary microglia HTS, 10 μM, fibrin-stimulated, cell size >800 μm^2 as marker of activation
[11] = primary microglia HTS, 10 μM, LPS assay, cell size <150 μm^2 as marker of toxicity
[12] = HTS of 1907 compounds, quadrant by fibrin and LPS inhibition
[13] = Rattus norvegicus, Microglia, primary microglia HTS, 10 μM, LPS-stimulated, cell size >800 μm^2 as marker of activation
[14] = primary microglia HTS, 10 μM, fibrin assay, cell size <150 μm^2 as marker of toxicity
[15] = Rattus norvegicus, Microglia, primary microglia HTS, fibrin stimulation, increased cell size (>800 μm^2) as marker of activation
[16] = primary microglia HTS, LPS stimulation, decreased size (<150 μm^2) as marker of toxicity
[17] = quadrant by fibrin and LPS inhibition in HTS of 1907 compounds
[18] = Rattus norvegicus, Microglia, 48 h, primary microglia HTS, LPS stimulation, increased cell size (>800 μm^2) as marker of activation
[19] = primary microglia HTS, fibrin stimulation, decreased size (<150 μm^2) as marker of toxicity
[20] = Rattus norvegicus, Microglia, primary microglia HTS, fibrin stimulation, activation = cell size >800 μm2
[21] = primary microglia HTS, LPS stimulation, toxicity = cell size <150 μm2
[22] = Rattus norvegicus, Microglia, 48 h, primary microglia HTS, LPS stimulation, activation = cell size >800 μm2
[23] = primary microglia HTS, fibrin stimulation, toxicity = cell size <150 μm2

Cc1cc(O)ccc1Cl [Chlorocresol]
inhibition at 10 µM [1, 6]: -25%
LPS % cell toxicity (primary rat microglia [2]; [7]): 0%
Quadrant (FIG. 5b) ([3]; primary HTS, 10 μM): Q4
inhibition at 10 µM [4, 8]: 11%
Fibrin % cell toxicity (primary rat microglia [5]; [9]): 1%

COc1ncnc(NS(=O)(=O)c2ccc(N)cc2)c1OC [Sulfadoxine]
inhibition at 10 µM [1, 10]: -12%
LPS % cell toxicity (primary rat microglia [2]; [11]): 0%
Quadrant (FIG. 5b) [3, 12]: Q4
inhibition at 10 µM [4, 13]: 3%
Fibrin % cell toxicity (primary rat microglia [5]; [14]): 1%

CC(NCCC(c1ccccc1)c1ccccc1)c1ccccc1 (stereo not shown) [Fendiline hydrochloride, reference compound]
pIC50 ([1]; Rattus norvegicus, Microglia, Table 7, read-out: fib_IC50): 5.76
inhibition at 10 µM [1, 15]: -33%
LPS % cell toxicity (primary rat microglia [2]; [16]): 0%
Quadrant (FIG. 5b) ([3]; Table 2, screen at 10 μM): Q4
Activity ([3]; Table 7, fib = fibrin, LPS, tox = toxicity): fib/LPS
Quadrant (FIG. 5b) [3, 17]: Q4
inhibition at 10 µM [4, 18]: 10%
pIC50 ([4]; Rattus norvegicus, Microglia, Table 7, read-out: LPS_IC50): 6.05
Fibrin % cell toxicity (primary rat microglia [5]; [19]): 1%

CS(=O)(=O)c1ccc([C@@H](O)[C@@H](CF)NC(=O)C(Cl)Cl)cc1 [Florfenicol]
inhibition at 10 µM [1, 20]: -12%
LPS % cell toxicity (primary rat microglia [2]; [21]): 1%
Quadrant (FIG. 5b) [3, 17]: Q4
inhibition at 10 µM [4, 22]: 16%
Fibrin % cell toxicity (primary rat microglia [5]; [23]): 1%

O=C(O)[C@H]1/C(=C/CO)O[C@@H]2CC(=O)N21 [Clavulanate]
inhibition at 10 µM [1, 6]: -16%
LPS % cell toxicity (primary rat microglia [2]; [7]): 0%
Quadrant (FIG. 5b) ([3]; primary HTS, 10 μM): Q4
inhibition at 10 µM [4, 8]: 5%
Fibrin % cell toxicity (primary rat microglia [5]; [9]): 0%

CCCCC[C@H](O)/C=C/[C@H]1[C@H](O)CC(=O)[C@@H]1C/C=C\CCCC(=O)O [Dinoprostone]
inhibition at 10 µM [1, 15]: 102%
LPS % cell toxicity (primary rat microglia [2]; [16]): 2%
Quadrant (FIG. 5b) [3, 17]: Q2
inhibition at 10 µM [4, 18]: 85%
Fibrin % cell toxicity (primary rat microglia [5]; [19]): 9%

CC(C)[C@H](N)C(=O)OCCOCn1cnc2c(=O)[nH]c(N)nc21 [Valaciclovir]
inhibition at 10 µM [1, 10]: 12%
LPS % cell toxicity (primary rat microglia [2]; [11]): 0%
Quadrant (FIG. 5b) [3, 12]: Q4
inhibition at 10 µM [4, 13]: 15%
Fibrin % cell toxicity (primary rat microglia [5]; [14]): 1%

CC1(C)O[C@@H]2C[C@H]3[C@@H]4CCC5=CC(=O)CC[C@]5(C)[C@@]4(F)[C@@H](O)C[C@]3(C)[C@]2(C(=O)CCl)O1 [Halcinonide]
inhibition at 10 µM [1, 15]: 103%
LPS % cell toxicity (primary rat microglia [2]; [16]): 2%
Quadrant (FIG. 5b) [3, 17]: Q2
inhibition at 10 µM [4, 18]: 95%
Fibrin % cell toxicity (primary rat microglia [5]; [19]): 8%

O=C([O-])C(O)[C@H](O)[C@@H](O)[C@H](O)[C@H](O)CO.O=C([O-])C(O)[C@H](O)[C@@H](O)[C@H](O)[C@H](O)CO.[Ca+2] (stereo partly shown) [Calcium Gluceptate]
Fibrin % inhibition ([1]; primary HTS, 10 μM, fibrin-stimulated primary microglia): 8%
LPS % cell toxicity (primary rat microglia [2]; [7]): 0%
Quadrant (FIG. 5b) ([3]; primary HTS, 10 μM): Q4
LPS % inhibition ([4]; primary HTS, 10 μM, LPS-stimulated primary microglia): 8%
Fibrin % cell toxicity (primary rat microglia [5]; [9]): 1%

Cc1ncc(CNC(=O)N(CCCl)N=O)c(N)n1 [Nimustine]
inhibition at 10 µM [1, 15]: -1%
LPS % cell toxicity (primary rat microglia [2]; [16]): 0%
Quadrant (FIG. 5b) [3, 17]: Q4
inhibition at 10 µM [4, 18]: 10%
Fibrin % cell toxicity (primary rat microglia [5]; [19]): 1%

CC1=C(/C=C/C(C)=C/C=C/C(C)=C/C(=O)Nc2ccc(O)cc2)C(C)(C)CCC1 [Fenretinide]
inhibition at 10 µM [1, 20]: -42%
LPS % cell toxicity (primary rat microglia [2]; [21]): 0%
Quadrant (FIG. 5b) [3, 17]: Q4
inhibition at 10 µM [4, 22]: 35%
Fibrin % cell toxicity (primary rat microglia [5]; [23]): 0%

O=C(NC(=O)c1c(F)cccc1F)Nc1cc(Cl)c(OC(F)(F)C(F)C(F)(F)F)cc1Cl (stereo not shown) [Lufenuron]
inhibition at 10 µM [1, 15]: 15%
LPS % cell toxicity (primary rat microglia [2]; [16]): 0%
Quadrant (FIG. 5b) [3, 17]: Q4
inhibition at 10 µM [4, 18]: 13%
Fibrin % cell toxicity (primary rat microglia [5]; [19]): 1%

N[C@@H](Cc1cc(I)c(Oc2cc(I)c(O)c(I)c2)c(I)c1)C(=O)O [Thyroxine, Levothyroxine]
Fibrin % inhibition ([1]; primary microglia HTS, 10 μM, fibrin-stimulated, cell size >800 μm^2 as marker of activation): 5%
LPS % cell toxicity (primary rat microglia [2]; [11]): 1%
Quadrant (FIG. 5b) [3, 12]: Q4
LPS % inhibition ([4]; primary microglia HTS, 10 μM, LPS-stimulated, cell size >800 μm^2 as marker of activation): 25%
Fibrin % cell toxicity (primary rat microglia [5]; [14]): 1%

Gramicidin
Fibrin % inhibition ([1]; primary microglia HTS, fibrin stimulation, increased cell size (>800 μm^2) as marker of activation): 114%
LPS % cell toxicity (primary rat microglia [2]; [16]): 64%
Quadrant (FIG. 5b) [3, 17]: Q2
LPS % inhibition ([4]; primary microglia HTS, LPS stimulation, increased cell size (>800 μm^2) as marker of activation): 118%
Fibrin % cell toxicity (primary rat microglia [5]; [19]): 43%

Cc1cccc(Nc2ccncc2S(=O)(=O)NC(=O)NC(C)C)c1 [Torasemide]
inhibition at 10 µM [1, 10]: -29%
LPS % cell toxicity (primary rat microglia [2]; [11]): 0%
Quadrant (FIG. 5b) [3, 12]: Q4
inhibition at 10 µM [4, 13]: 7%
Fibrin % cell toxicity (primary rat microglia [5]; [14]): 1%
